As usually defined, the Ki is a measure of affinity in units of concentration, obtained from inhibition or displacement. A word on the pKi: it is the negative decadic logarithm of the Ki, by convention in mol/L. What is called IC50 is the point on the concentration scale where inhibition reaches its midpoint.

pKi: −log10 of the molar value. Read-outs that look alike come from different tables or passages of the source.

Here are results for 11 compounds from patent US20250313572A1, “MACROCYCLIC MCL-1 INHIBITORS AND METHODS OF USE” (AbbVie Inc., priority 2017, published 2025).

One experiment deals with GST-MCL-1 (Homo sapiens, UniProt Q07820). Put plainly: TR-FRET MCL-1 binding assay (competition with probe F-Bak). The note with it: for Ki: MCL-1 Binding Ki (nM, 10% HS), in the presence of 10% HS (human serum); for pKi: without HS, read-out: MCL-1 Binding Ki. In a few lines:
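Test compounds, 11 three-fold dilutions from 25 μM final, incubated 2 hours at room temperature with GST-MCL-1, F-Bak probe and Tb-anti-GST antibody. TR-FRET read at 340/35 nm excitation with 520/525 and 495/510 nm emission. Run without human serum and with 10% HS.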

The test system of experiment [1] is AMO-1 human multiple myeloma tumor cell line. Briefly: AMO-1 cell viability assay (CellTiter-Glo, 24 hours). In kind it is cell-based. As to conditions: Homo sapiens, AMO1, 24 h, read-out: AMO-1 Viability IC50 (μM, 10% FBS), 10% FBS, 24 hours of compound treatment. For orientation: In ATP-based viability assays light output follows the ATP content of the culture.

For experiment [2], the system named is NCI-H929 human multiple myeloma tumor cell line. Put plainly: NCI-H929 cell viability assay (CellTiter-Glo, 24 hours). Format: cell-based. As to conditions: Homo sapiens, NCI-H929, 24 h, read-out: H929 Viability IC50 (μM, 10% FBS), 10% FBS, 24 hours of compound treatment.

GST-MCL-1, sequence (Q07820 whole entry): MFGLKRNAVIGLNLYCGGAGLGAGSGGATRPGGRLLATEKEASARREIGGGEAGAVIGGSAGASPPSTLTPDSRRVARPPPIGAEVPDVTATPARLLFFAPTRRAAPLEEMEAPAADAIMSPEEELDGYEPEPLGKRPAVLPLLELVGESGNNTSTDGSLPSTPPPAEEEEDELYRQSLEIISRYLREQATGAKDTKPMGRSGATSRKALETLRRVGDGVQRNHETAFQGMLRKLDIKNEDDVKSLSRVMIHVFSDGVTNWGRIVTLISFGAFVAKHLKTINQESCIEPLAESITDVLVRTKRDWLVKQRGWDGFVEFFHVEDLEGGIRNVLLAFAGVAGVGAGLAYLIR

In the case of `Cc1c(Cl)c2c(Cl)c(C)c1-c1c(-c3ccc(F)cc3)sc3ncnc(c13)O[C@@H](C(=O)O)Cc1cc(ccc1OCc1ccnc(N3CCOCCOCCOCCOCCOCC3)n1)OC[C@@H](CN1CCN(C)CC1)O2` [Example 116, (7R,16R)-19,23-dichloro-1-(4-fluorophenyl)-20,22-dimethyl-16-[(4-methylpiperazin-1-yl)methyl]-10-{[2-(1,4,7,10,13-pentaoxa-16-azacyclooctadecan-16-yl)pyrimidin-4-yl]methoxy}-7,8,15,16-tetrahydro-18,21-etheno-13,9-(metheno)-6,14,17-trioxa-2-thia-3,5-diazacyclononadeca[1,2,3-cd]indene-7-carboxylic Acid], on GST-MCL-1, the Ki was determined as 2.94 nM and the pKi is 9.48. Further, in experiment [1], the concentration for half-maximal inhibition (IC50) is 2.97 nM. Besides, the IC50 in experiment [2] was found to be 0.00798 µM.
On the same counts, the results for `Cc1c(Cl)c2c(Cl)c(C)c1-c1c(-c3ccc(F)cc3)sc3ncnc(c13)O[C@@H](C(=O)O)Cc1cc(ccc1OCc1ccnc(-c3cccc(CN4CCS(=O)(=O)CC4)c3)n1)OC[C@@H](CN1CCN(C)CC1)O2` [Example 117, (7R,16R)-19,23-dichloro-10-[(2-{3-[(1,1-dioxo-1λ^6-thiomorpholin-4-yl)methyl]phenyl}pyrimidin-4-yl)methoxy]-1-(4-fluorophenyl)-20,22-dimethyl-16-[(4-methylpiperazin-1-yl)methyl]-7,8,15,16-tetrahydro-18,21-etheno-13,9-(metheno)-6,14,17-trioxa-2-thia-3,5-diazacyclononadeca[1,2,3-cd]indene-7-carboxylic Acid] are 0.219 nM, 10.60, 0.205 nM and 0.000364 µM.
`COCCOCCOCCOC[C@]1(F)CC[C@@H](c2nccc(COc3ccc4cc3C[C@H](C(=O)O)Oc3ncnc5sc(-c6ccc(F)cc6)c(c35)-c3c(C)c(Cl)c(c(Cl)c3C)O[C@H](CN3CCN(C)CC3)CO4)n2)CC1` [Example 118, (7R,16R)-19,23-dichloro-1-(4-fluorophenyl)-10-({2-[(1s,4s)-4-fluoro-4-(2,5,8,11-tetraoxadodecan-1-yl)cyclohexyl]pyrimidin-4-yl}methoxy)-20,22-dimethyl-16-[(4-methylpiperazin-1-yl)methyl]-7,8,15,16-tetrahydro-18,21-etheno-13,9-(metheno)-6,14,17-trioxa-2-thia-3,5-diazacyclononadeca[1,2,3-cd]indene-7-carboxylic Acid]: at GST-MCL-1, the Ki came out at 27.3 nM and the pKi is 8.70. Further, the 50% inhibitory concentration (IC50) in experiment [1] stood at 0.247 nM. Besides, the IC50 in experiment [2] stood at 0.000396 µM.
In the same order, the values of `COCCOCCO[C@]1(c2nccc(COc3ccc4cc3C[C@H](C(=O)O)Oc3ncnc5sc(-c6ccc(F)cc6)c(c35)-c3c(C)c(Cl)c(c(Cl)c3C)O[C@H](CN3CCN(C)CC3)CO4)n2)CC[C@@H](OCC2COCCO2)CC1` (stereo partly drawn) [Example 121, (7R,16R)-19,23-dichloro-10-[(2-{(1r,4r)-4-[(1,4-dioxan-2-yl)methoxy]-1-[2-(2-methoxyethoxy)ethoxy]cyclohexyl}pyrimidin-4-yl)methoxy]-1-(4-fluorophenyl)-20,22-dimethyl-16-[(4-methylpiperazin-1-yl)methyl]-7,8,15,16-tetrahydro-18,21-etheno-9,13-(metheno)-6,14,17-trioxa-2-thia-3,5-diazacyclononadeca[1,2,3-cd]indene-7-carboxylic Acid] are 0.231 nM, 10.28, 5.08 nM and 0.00956 µM.
As to `COCCOCCO[C@]1(c2nccc(COc3ccc4cc3C[C@H](C(=O)O)Oc3ncnc5sc(-c6ccc(F)cc6)c(c35)-c3c(C)c(Cl)c(c(Cl)c3C)O[C@H](CN3CCN(C)CC3)CO4)n2)CC[C@H](OCC2COCCO2)CC1` (stereo partly drawn) [Example 122, (7R,16R)-19,23-dichloro-10-[(2-{(1s,4s)-4-[(1,4-dioxan-2-yl)methoxy]-1-[2-(2-methoxyethoxy)ethoxy]cyclohexyl}pyrimidin-4-yl)methoxy]-1-(4-fluorophenyl)-20,22-dimethyl-16-[(4-methylpiperazin-1-yl)methyl]-7,8,15,16-tetrahydro-18,21-etheno-9,13-(metheno)-6,14,17-trioxa-2-thia-3,5-diazacyclononadeca[1,2,3-cd]indene-7-carboxylic Acid], on GST-MCL-1, the Ki is 0.698 nM and the pKi is 10.62. Further, in experiment [1], the IC50 came to 1.07 nM. Besides, the IC50 in experiment [2] is 0.00277 µM.
In the same order, the values of `Cc1c(Cl)c2c(Cl)c(C)c1-c1c(-c3ccc(F)cc3)sc3ncnc(c13)O[C@@H](C(=O)O)Cc1cc(ccc1OCc1ccnc(-c3ccc(OCC4COCCOCCOCCOCCOCCO4)cc3)n1)OC[C@@H](CN1CCN(C)CC1)O2` (stereo partly drawn) [Example 123, (7R,16R)-19,23-dichloro-1-(4-fluorophenyl)-10-[(2-{4-[(1,4,7,10,13,16-hexaoxacyclooctadecan-2-yl)methoxy]phenyl}pyrimidin-4-yl)methoxy]-20,22-dimethyl-16-[(4-methylpiperazin-1-yl)methyl]-7,8,15,16-tetrahydro-18,21-etheno-13,9-(metheno)-6,14,17-trioxa-2-thia-3,5-diazacyclononadeca[1,2,3-cd]indene-7-carboxylic Acid] are 0.051 nM, 11.52, 1.28 nM and 0.00467 µM.
On the same counts, the results for `Cc1c(Cl)c2c(Cl)c(C)c1-c1c(-c3ccc(F)cc3)sc3ncnc(c13)O[C@@H](C(=O)O)Cc1cc(ccc1OCc1ccnc(-c3ccc(CN4CCS(=O)(=O)CC4)cc3)n1)OC[C@@H](CN1CCN(C)CC1)O2` [Example 126, (7R,16R)-19,23-dichloro-10-[(2-{4-[(1,1-dioxo-1˜^6-thiomorpholin-4-yl)methyl]phenyl}pyrimidin-4-yl)methoxy]-1-(4-fluorophenyl)-20,22-dimethyl-16-[(4-methylpiperazin-1-yl)methyl]-7,8,15,16-tetrahydro-18,21-etheno-13,9-(metheno)-6,14,17-trioxa-2-thia-3,5-diazacyclononadeca[1,2,3-cd]indene-7-carboxylic Acid] are 0.39 nM, 10.37, 0.544 nM and 0.00169 µM.
On the same counts, the results for `COCCOCCOC[C@H]1CC=C(c2nccc(COc3ccc4cc3C[C@H](C(=O)O)Oc3ncnc5sc(-c6ccc(F)cc6)c(c35)-c3c(C)c(Cl)c(c(Cl)c3C)O[C@H](CN3CCN(C)CC3)CO4)n2)CC1` [Example 127, (7R,16R)-19,23-dichloro-1-(4-fluorophenyl)-10-({2-[(4R)-4-{[2-(2-methoxyethoxy)ethoxy]methyl}cyclohex-1-en-1-yl]pyrimidin-4-yl}methoxy)-20,22-dimethyl-16-[(4-methylpiperazin-1-yl)methyl]-7,8,15,16-tetrahydro-18,21-etheno-13,9-(metheno)-6,14,17-trioxa-2-thia-3,5-diazacyclononadeca[1,2,3-cd]indene-7-carboxylic acid] are 0.339 nM, 10.55, 0.124 nM and 0.000385 µM.
Regarding `COCCOCCOC[C@@H]1CC=C(c2nccc(COc3ccc4cc3C[C@H](C(=O)O)Oc3ncnc5sc(-c6ccc(F)cc6)c(c35)-c3c(C)c(Cl)c(c(Cl)c3C)O[C@H](CN3CCN(C)CC3)CO4)n2)CC1` [Example 128, (7R,16R)-19,23-dichloro-1-(4-fluorophenyl)-10-({2-[(4S)-4-{[2-(2-methoxyethoxy)ethoxy]methyl}cyclohex-1-en-1-yl]pyrimidin-4-yl}methoxy)-20,22-dimethyl-16-[(4-methylpiperazin-1-yl)methyl]-7,8,15,16-tetrahydro-18,21-etheno-13,9-(metheno)-6,14,17-trioxa-2-thia-3,5-diazacyclononadeca[1,2,3-cd]indene-7-carboxylic Acid], on GST-MCL-1, the Ki came out at 0.275 nM and the pKi is 10.57. In addition, in experiment [1], the 50% inhibitory concentration (IC50) worked out at 0.0939 nM. For the same compound, the IC50 in experiment [2] amounted to 0.000313 µM.
Consider `Cc1c(Cl)c2c(Cl)c(C)c1-c1c(-c3ccc(F)cc3)sc3ncnc(c13)O[C@@H](C(=O)O)Cc1cc(ccc1OCc1ccnc(-c3ccc(CN4CCOCCOCCOCCOCC4)cc3)n1)OC[C@@H](CN1CCN(C)CC1)O2` [Example 129, (7R,16R)-19,23-dichloro-1-(4-fluorophenyl)-20,22-dimethyl-16-[(4-methylpiperazin-1-yl)methyl]-10-[(2-{4-[(1,4,7,10-tetraoxa-13-azacyclopentadecan-13-yl)methyl]phenyl}pyrimidin-4-yl)methoxy]-7,8,15,16-tetrahydro-18,21-etheno-13,9-(metheno)-6,14,17-trioxa-2-thia-3,5-diazacyclononadeca[1,2,3-cd]indene-7-carboxylic Acid], for which, on GST-MCL-1, the Ki was found to be 0.064 nM and the pKi was 11.70. In experiment [1], the IC50 is 0.144 nM. In addition, the IC50 in experiment [2] was found to be 0.000562 µM.
In the same order, the values of `COCCOCCOCCO[C@H]1CC[C@H](c2nccc(COc3ccc4cc3C[C@H](C(=O)O)Oc3ncnc5sc(C6CCC6)c(c35)-c3c(C)c(Cl)c(c(Cl)c3C)O[C@H](CN3CCN(C)CC3)CO4)n2)CC1` [Example 131, (7R,16R)-19,23-dichloro-1-cyclobutyl-10-({2-[(1r,4r)-4-{2-[2-(2-methoxyethoxy)ethoxy]ethoxy}cyclohexyl]pyrimidin-4-yl}methoxy)-20,22-dimethyl-16-[(4-methylpiperazin-1-yl)methyl]-7,8,15,16-tetrahydro-18,21-etheno-13,9-(metheno)-6,14,17-trioxa-2-thia-3,5-diazacyclononadeca[1,2,3-cd]indene-7-carboxylic Acid] are 1.14 nM, 10.62, 0.367 nM and 0.000585 µM.
